≈ marks a conversion by molar mass, not a printed value.
Key:
P. acnes (ATCC 6919) [1] = experiment: Minimal inhibitory concentration (MIC) against P. acnes; type: cell-based, Propionibacterium acnes; conditions: Cutibacterium acnes, ATCC6919, 72 h, P. acnes ATCC 6919, 10^6 CFU/mL, read-out: MIC
Protocol: To determine minimal inhibitory concentration (MIC), reagents were dissolved in vehicle (5% v/v) and then added to bacteria suspension. P. acnes (ATCC® 6919TM) at 10^6 CFU/mL was incubated with test materials at the concentrations of two-fold serial dilution (0.25-500 μg/mL) and incubated for 72 hours (P. acnes).

CXCL8 (IL-8) = experiment: P. acnes-induced IL-8 gene on human PBMCs (qPCR); type: cell-based; conditions: PBMC, PBMCs + live P. acnes 1:1, test material 30 PM, 24 hours
Protocol: (§1) Cryopreserved human Peripheral Blood Mononuclear cells (PBMCs) from healthy adult donors were obtained from Zen Bio, Inc (Cat No. SER-PBMC-F). Cells were cultured in 12-well plates with lymphocyte media (Cat No. LYMPH-1) and incubated with test materials ([…]) and live P. acnes (ATCC® 6919TM) at 1:1 PBMC: P. acnes bacteria ratio for 24 hours at 37° C. and 5% CO2. After incubation, cell media supernatants were harvested and used to measure pro-inflammatory cytokine levels (IL-8, TNF-α, IL-1b, IL-17) using ELISA kits (BD Biosciences® #557966, #555212, #555244; R&D Systems® #DY317). Total RNA was extracted from cells using the RNAqueous® kit (Ambion®; Cat No. 1912) and cDNA was obtained using the High Capacity RNA-to-cDNA kit (Applied Biosystems®; Cat No. 4387406). Quantitative PCR (qPCR) was performed using the TaqMan® Fast Advanced Master Mix (Applied Biosystems®; Cat No. 4444556) and specific TaqMan®-probes human gene primers CXCL8 (IL-8), IL1B (IL-1b), TNF (TNF-α), IL17A (IL-17A) and GAPDH to calculate the relative gene fold expression change per treatment. Gene expression analysis was performed using the comparative Ct method (also known as the 2-[delta][delta]Ct) approach by comparing the Ct values of P. acnes-only treated cells with the untreated samples and normalized to GAPDH gene expression as endogenous housekeeping gene.

TNF (TNF-α) = experiment: P. acnes-induced TNF-α gene on human PBMCs (qPCR); type: cell-based; conditions: PBMC, PBMCs + live P. acnes 1:1, test material 30 PM, 24 hours, read-out: TNFa-Gene % inhibition
Protocol: as §1

IL1B (IL-1b) = experiment: P. acnes-induced IL-1b gene on human PBMCs (qPCR); type: cell-based; conditions: PBMC, PBMCs + live P. acnes 1:1, test material 30 PM, 24 hours
Protocol: as §1

IL17A (IL-17A) = experiment: P. acnes-induced IL-17 gene on human PBMCs (qPCR); type: cell-based; conditions: PBMC, PBMCs + live P. acnes 1:1, test material 30 PM, 24 hours
Protocol: as §1

Balb/C mice = experiment: Oxazolone-induced delayed-type hypersensitivity (DTH) in vivo model; conditions: Mus musculus, topical to ears @ 3% w/v, 24 hours, read-out: Edema % inhibition
Protocol: Inbred male Balb/C mice were purchased from Hilltop Lab Animals (Scottdale, PA) and were used between 8 and 10 weeks of age. Mice backs were shaved and 100 μl of 3% v/v Oxazolone (Sigma Aldrich, Cat No. E0753) in acetone/olive oil (4:1) was applied to dorsal skin for sensitization. On Day 7, ears were challenged with 0.5% v/v Oxazolone and 30 minutes after challenge, test materials at 3% w/v were applied to ears (10 μl applied both to the dorsal and ventral surfaces of the mouse ear using a solvent pipette) and 24 hours later, skin thickness (edema) was measured. A 6-mm punch biopsy was obtained from each ear, snap frozen in liquid nitrogen. Ear skin biopsy punches were pulverized using FastPrep®-24 Biopulverizer (MP Biomedical, CatNo. 116004500) and Lysing Matrix A tubes (CatNo. 16910050). Protein extracts were obtained using 500 μL/tissue of cold T-PER buffer (ThermoFisher, CatNo. 78510) with Protease inhibitors (Sigma-Aldich, CatNo. 58820-20TAB). Soluble protein fractions were used to measure cytokine levels (IL-4) using ELISA kit (BD Biosciences® #555232). Results were represented as percent of inhibition relative to unsensitized and sensitized-only treated animals. Vehicle for presently disclosed compounds was 60:40 H2O:EtOH and 1:1 Acetone:EtOH for AN2718. (n=5-15 animals per treatment group).
Compound C was further analyzed at various dosages against 0.4 mg/ear of […] by the above protocol, data representing the average±S.E. of cumulative data from three independent experiments (n=12-15 mice per group) is shown below: […]

P. acnes (ATCC 6919) [2] = experiment: Minimal bactericidal concentration (MBC) against P. acnes; type: cell-based, Propionibacterium acnes; conditions: Cutibacterium acnes, ATCC6919; P. acnes 10^7 CFU/mL, in PBS, anaerobic conditions
[3] = test system: P. acnes (ATCC 6919) biofilms; experiment: P. acnes biofilm eradication (MBEC), crystal violet; type: cell-based, Propionibacterium acnes; conditions: 24 hours, ≥80% eradication vs vehicle
Protocol: P. acnes (ATCC® 6919™) was cultured as described above. Bacteria biofilms were established by seeding P. acnes cultures in 96-well plates and incubating for 24 hours without agitation. Later, biofilms were incubated with test materials for 24 hours. Remaining biofilms were washed and stained with crystal violet. […] The absorbance was measured at 595 nm in a microplate reader. […] Results from disk diffusion susceptibility testing (Kirby-Bauer Method) after 72 hours incubation were also obtained.

DEFB4B (hBD2) = experiment: NHEK antimicrobial peptide gene expression, hBD2; type: cell-based, human; conditions: 10 μM, 24 hours, qPCR, normalized to GAPDH
Protocol: (§2) Normal human epidermal keratinocytes (NHEKs) from neonatal donors were obtained from Thermo-Fisher (Cat No. C-001-5C). Cells were cultured in 6-well plates for 24 hours before treatments with EpiLife media (Cat No. MEPI500CA) supplemented with keratinocytes growth supplement (Cat No. 50015). On Day 2, media was removed and incubated with test materials (10 μM) for 24 hours at 37° C. and 5% CO2. On Day 3, total RNA was extracted from cells using the RNAqueous® kit (Ambion®; Cat No. 1912) and cDNA was obtained using the High Capacity RNA-to-cDNA kit (Applied Biosystems®; Cat No. 4387406). Quantitative PCR (qPCR) was performed using the TaqMan® Fast Advanced Master Mix (Applied Biosystems®; Cat No. 4444556) and specific TaqMan®-probes human gene primers DEFB4B (hBD2), DEFB103 (hBD3), HCAP18 and GAPDH to calculate the relative gene fold expression change per treatment. Gene expression analysis was performed using the comparative Ct method (also known as the 2-[delta][delta]Ct) approach by comparing the Ct values of the treated samples with the untreated samples and normalized to GAPDH gene expression as endogenous housekeeping gene. Results were represented as fold-expression/untreated cells.

DEFB103 (hBD3) = experiment: NHEK antimicrobial peptide gene expression, hBD3; type: cell-based, human; conditions: 10 μM, 24 hours, qPCR, normalized to GAPDH
Protocol: as §2

HCAP18 = experiment: NHEK antimicrobial peptide gene expression, hCAP18; type: cell-based, human; conditions: 10 μM, 24 hours, qPCR, normalized to GAPDH
Protocol: as §2

IL-8 [4] = experiment: P. acnes-induced IL-8 protein on human PBMCs (ELISA); type: cell-based; conditions: PBMCs + live P. acnes 1:1, test material 30 PM, 24 hours
Protocol: as §1

IL-1b = experiment: P. acnes-induced IL-1b protein on human PBMCs (ELISA); type: cell-based; conditions: PBMC, PBMCs + live P. acnes 1:1, test material 30 PM, 24 hours
Protocol: as §1

IL-17 = experiment: P. acnes-induced IL-17 protein on human PBMCs (ELISA); type: cell-based; conditions: PBMC, PBMCs + live P. acnes 1:1, test material 30 PM, 24 hours
Protocol: as §1

TNF-α = experiment: P. acnes-induced TNF-α protein on human PBMCs (ELISA); type: cell-based; conditions: PBMCs + live P. acnes 1:1, test material 30 PM, 24 hours
Protocol: as §1

IL-8 [5] = experiment: Peptidoglycan (PGN)-induced IL-8 on NHEKs; type: cell-based, human; conditions: Homo sapiens; NHEK, PGN 10 μg/mL, 24 hours, ELISA; read-out: PGN-NHEK 1L-8 Protein IC50
Protocol: (§3) Normal human epidermal keratinocytes (NHEKs) from neonatal donors were obtained from Thermo-Fisher (Cat No. C-001-5C). Cells were cultured in 96-well plates for 24 hours with EpiLife media (Cat No. MEPI500CA) supplemented with keratinocytes growth supplement (Cat No. S0015). On Day 2, media was removed and replaced with supplement-depleted medium for 24 hours. On Day 3, media was removed and cells were pre-treated with test materials (≤1 μM) for 2 hours and later co-treated with test materials and PGN (Sigma Aldrich, Cat No. 77140) at 10 μg/mL and incubated for 24 hours at 37° C. and 5% CO2. PGN is a TLR-2 agonist. After incubation, cell media supernatants were harvested and used to measure pro-inflammatory cytokine levels (IL-8) using ELISA kit (BD Biosciences® #555244). Results were represented as percent of inhibition relative to untreated and PGN-only treated cells. IC50 values were determined by non-linear regression analysis using the four-parameter logistic equation.

IL-8 [6] = experiment: P. acnes-induced IL-8 on human NHEKs; type: cell-based; conditions: Homo sapiens; NHEK, live P. acnes 10^7 CFU, 24 hours, ELISA; read-out: P. acnes-NHEK IL-8 Protein IC50
Protocol: as §3, with “([…])” for “(≤1 μM)”, “live P. acnes (ATCC® 6919TM)” for “PGN (Sigma Aldrich, Cat No. 77140)”, “10^7 CFU” for “10 μg/mL and incubated”, “CO2.” for “CO2. PGN is a TLR-2 agonist.”, “kits” for “kit”, “P. acnes-only” for “PGN-only”

Row | MIC (P. acnes (ATCC 6919) [1]) | IC50 (IL-8 [5]) | IC50 (IL-8 [6]) | Compound | inhibition at 30 pM (CXCL8 (IL-8)) | inhibition at 30 pM (TNF (TNF-α)) | inhibition at 30 pM (IL1B (IL-1b)) | inhibition at 30 pM (IL17A (IL-17A)) | inhibition in vivo at 3 % strength (Balb/C mice) | MBC (P. acnes (ATCC 6919) [2]) | MBEC [3] | hBD2 gene expression (DEFB4B (hBD2)) | hBD3 gene expression (DEFB103 (hBD3)) | hCAP18 gene expression (HCAP18) | IL-8 Protein % inhibition (IL-8 [4]) | inhibition at 30 pM (IL-1b) | inhibition at 30 pM (IL-17) | TNFa-Protein % inhibition (TNF-α)
1 | > 16 µg/mL |  |  | CCN(CC(=O)O)C(=O)NC(CSC/C=C(\C)CCCC(C)CCCC(C)CCCC(C)C)C(=O)O (stereo not shown) [I] | 52% | 0% | 86% | 7% | 36% |  |  |  |  |  |  |  |  | 
2 | 1000 µg/mL (≈ 7.24 mM) | > 1000 nM |  | O=C(O)c1ccccc1O [Salicylic Acid, reference compound] |  |  |  |  |  | 2000 µg/mL (≈ 14.5 mM) | >8000 μg/mL and (>57920) μM | 1.0 Fold-expression/untreated cells | 1.2 Fold-expression/untreated cells | 1.2 Fold-expression/untreated cells | 0% | 40% | 0% | 0%
3 | > 4 µg/mL |  | 3 nM | C/C(=C\CSCC(NC(=O)c1cc(O)c(O)c(O)c1)C(=O)O)CCCC(C)CCCC(C)CCCC(C)C (stereo not shown) [V] | 46% | 0% | 83% | 0% | 5% | > 25 µg/mL |  |  |  |  |  |  |  | 

From patent US11802107B2, “Compounds and methods of use” (Signum Biosciences, Inc., priority 2017, dated 2023)
